Measured values: patent US8952024B2, “Herbicidal pyrimidone derivatives” (E I du Pont de Nemours and Company, priority 2009, dated 2015)

Legend:
Test in all cases: Test B pre-/postemergence plant response
Assay type in all cases: in vivo
[1] = system: Italian ryegrass (Lolium multiflorum)
Method in brief: (§1)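 Plants treated either at seeding (loam/sand soil) or postemergence at 2 to 18 cm height, using a surfactant-containing non-phytotoxic solvent formulation. Evaluation was visual after 13 to 15 days, 0 to 100 scale relative to controls.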

[2] = system: blackgrass (Alopecurus myosuroides)
Method in brief: as §1

[3] = system: cocklebur (Xanthium strumarium)
Method in brief: as §1

[4] = system: corn (Zea mays)
Method in brief: as §1

[5] = system: giant foxtail (Setaria faberii)
Method in brief: as §1

[6] = system: goosegrass (Eleusine indica)
Method in brief: as §1

[7] = system: green foxtail (Setaria viridis)
Method in brief: as §1

[8] = system: johnsongrass (Sorghum halepense)
Method in brief: as §1

[9] = system: kochia (Kochia scoparia)
Method in brief: as §1

[10] = system: large crabgrass (Digitaria sanguinalis)
Method in brief: as §1

[11] = system: morningglory (Ipomoea coccinea)
Method in brief: as §1

[12] = system: ragweed (common ragweed, Ambrosia elatior)
Method in brief: as §1

[13] = system: soybean (Glycine max)
Method in brief: as §1

[14] = system: velvetleaf (Abutilon theophrasti)
Method in brief: as §1

[15] = 31 g ai/ha, postemergence, scale 0 to 100, 0 is no effect, 100 is complete control
[16] = Postemergence, 62 g ai/ha, scale 0 (no effect) to 100 (complete control), 13 to 15 days
[17] = Postemergence, 125 g ai/ha, visual rating after 13 to 15 days, scale 0 (no effect) to 100 (complete control)
[18] = Postemergence, 250 g ai/ha, scale 0 to 100 (0 no effect, 100 complete control)
[19] = Preemergence, 31 g ai/ha, scale 0 to 100 (0 no effect, 100 complete control)
[20] = Preemergence, 62 g ai/ha, scale 0 to 100 (0 no effect, 100 complete control)
[21] = Preemergence, 125 g ai/ha, scale 0 to 100, 0 no effect, 100 complete control
[22] = 250 g ai/ha, Preemergence, 0 to 100 scale

For `O=C1CCCC(O)=C1C(=O)c1cnc(-c2ccsc2)n(-c2ccccc2)c1=O` [Compound 56], the “Plant response rating, Ryegrass, Italian” value [1, 15] was 0, the “Plant response rating, Ryegrass, Italian” value [1, 16] was 0 and the “Plant response rating, Ryegrass, Italian” value [1, 17] was 50. The “Plant response rating, Ryegrass, Italian” value [1, 18] was 50, the “Plant response rating, Ryegrass, Italian” value [1, 19] was 0 and the “Plant response rating, Ryegrass, Italian” value [1, 20] was 0. For the same molecule, the “Plant response rating, Ryegrass, Italian” value [1, 21] was 0, the “Plant response rating, Blackgrass” value [2, 15] was 0 and the “Plant response rating, Blackgrass” value [2, 22] was 5. For the same molecule, the “Plant response rating, Blackgrass” value [2, 16] was 10, the “Plant response rating, Blackgrass” value [2, 17] was 20 and the “Plant response rating, Blackgrass” value [2, 18] was 20. The “Plant response rating, Blackgrass” value [2, 19] was 0, the “Plant response rating, Blackgrass” value [2, 20] was 0 and the “Plant response rating, Blackgrass” value [2, 21] was 0. For the same molecule, the “Plant response rating, Cocklebur” value [3, 15] was 5, the “Plant response rating, Cocklebur” value [3, 22] was 0 and the “Plant response rating, Cocklebur” value [3, 16] was 55. The “Plant response rating, Cocklebur” value [3, 17] was 75, the “Plant response rating, Cocklebur” value [3, 18] was 95 and the “Plant response rating, Cocklebur” value [3, 19] was 0. For the same molecule, the “Plant response rating, Cocklebur” value [3, 20] was 0, the “Plant response rating, Cocklebur” value [3, 21] was 0 and the “Plant response rating, Corn” value [4, 15] was 45. The “Plant response rating, Corn” value [4, 22] was 0, the “Plant response rating, Corn” value [4, 16] was 65 and the “Plant response rating, Corn” value [4, 17] was 65. For the same molecule, the “Plant response rating, Corn” value [4, 18] was 70, the “Plant response rating, Corn” value [4, 19] was 0 and the “Plant response rating, Corn” value [4, 20] was 0. The “Plant response rating, Corn” value [4, 21] was 0, the “Plant response rating, Foxtail, Giant” value [5, 15] was 75 and the “Plant response rating, Foxtail, Giant” value [5, 22] was 80. The “Plant response rating, Foxtail, Giant” value [5, 16] was 80, the “Plant response rating, Foxtail, Giant” value [5, 17] was 85 and the “Plant response rating, Foxtail, Giant” value [5, 18] was 95. For the same molecule, the “Plant response rating, Foxtail, Giant” value [5, 19] was 0, the “Plant response rating, Foxtail, Giant” value [5, 20] was 40 and the “Plant response rating, Foxtail, Giant” value [5, 21] was 75. The “Plant response rating, Goosegrass” value [6, 15] was 65, the “Plant response rating, Goosegrass” value [6, 22] was 100 and the “Plant response rating, Goosegrass” value [6, 16] was 75. The “Plant response rating, Goosegrass” value [6, 17] was 75, the “Plant response rating, Goosegrass” value [6, 18] was 90 and the “Plant response rating, Goosegrass” value [6, 19] was 90. The “Plant response rating, Goosegrass” value [6, 20] was 95, the “Plant response rating, Goosegrass” value [6, 21] was 95 and the “Plant response rating, Foxtail, Green” value [7, 15] was 80. The “Plant response rating, Foxtail, Green” value [7, 22] was 100, the “Plant response rating, Foxtail, Green” value [7, 16] was 85 and the “Plant response rating, Foxtail, Green” value [7, 17] was 98. For the same molecule, the “Plant response rating, Foxtail, Green” value [7, 18] was 100, the “Plant response rating, Foxtail, Green” value [7, 19] was 0 and the “Plant response rating, Foxtail, Green” value [7, 20] was 20. For the same molecule, the “Plant response rating, Foxtail, Green” value [7, 21] was 20, the “Plant response rating, Johnsongrass” value [8, 15] was 55 and the “Plant response rating, Johnsongrass” value [8, 22] was 80. For the same molecule, the “Plant response rating, Johnsongrass” value [8, 16] was 80, the “Plant response rating, Johnsongrass” value [8, 17] was 85 and the “Plant response rating, Johnsongrass” value [8, 18] was 100. The “Plant response rating, Johnsongrass” value [8, 19] was 10, the “Plant response rating, Johnsongrass” value [8, 20] was 45 and the “Plant response rating, Johnsongrass” value [8, 21] was 55. For the same molecule, the “Plant response rating, Kochia” value [9, 15] was 90, the “Plant response rating, Kochia” value [9, 16] was 95 and the “Plant response rating, Kochia” value [9, 17] was 100. For the same molecule, the “Plant response rating, Kochia” value [9, 18] was 100, the “Plant response rating, Crabgrass, Large” value [10, 15] was 75 and the “Plant response rating, Crabgrass, Large” value [10, 22] was 98. The “Plant response rating, Crabgrass, Large” value [10, 16] was 85, the “Plant response rating, Crabgrass, Large” value [10, 17] was 90 and the “Plant response rating, Crabgrass, Large” value [10, 18] was 95. The “Plant response rating, Crabgrass, Large” value [10, 19] was 80, the “Plant response rating, Crabgrass, Large” value [10, 20] was 85 and the “Plant response rating, Crabgrass, Large” value [10, 21] was 98. The “Plant response rating, Morningglory” value [11, 17] was 100, the “Plant response rating, Morningglory” value [11, 18] was 100 and the “Plant response rating, Morningglory” value [11, 19] was 0. The “Plant response rating, Morningglory” value [11, 20] was 0, the “Plant response rating, Morningglory” value [11, 21] was 45 and the “Plant response rating, Ragweed” value [12, 15] was 55. For the same molecule, the “Plant response rating, Ragweed” value [12, 16] was 55, the “Plant response rating, Ragweed” value [12, 17] was 75 and the “Plant response rating, Ragweed” value [12, 18] was 75. The “Plant response rating, Ragweed” value [12, 19] was 20, the “Plant response rating, Ragweed” value [12, 20] was 65 and the “Plant response rating, Ragweed” value [12, 21] was 70. The “Plant response rating, Soybean” value [13, 15] was 85, the “Plant response rating, Soybean” value [13, 16] was 85 and the “Plant response rating, Soybean” value [13, 17] was 95. For the same molecule, the “Plant response rating, Soybean” value [13, 18] was 98, the “Plant response rating, Soybean” value [13, 19] was 20 and the “Plant response rating, Soybean” value [13, 21] was 80. The “Plant response rating, Velvetleaf” value [14, 15] was 85, the “Plant response rating, Velvetleaf” value [14, 16] was 90 and the “Plant response rating, Velvetleaf” value [14, 17] was 98. For the same molecule, the “Plant response rating, Velvetleaf” value [14, 18] was 98, the “Plant response rating, Velvetleaf” value [14, 19] was 85 and the “Plant response rating, Velvetleaf” value [14, 20] was 90. The “Plant response rating, Velvetleaf” value [14, 21] was 98.
